# Results taken from US20100204118A1, “USE OF GRF-1 (1-29 ) AND CORTICOTROPIN-RELEASING FACTOR AS THERAPEUTIC AGENTS” (priority 2007, published 2010).
# Ends that are not written are not given here.
# Tests used:
# [1] = system: HIV-1IIB; assay: HIV-1 antiviral assay in CEM-SS cells (MTS readout); assay type: cell-based
# [2] = system: HCMV strain AD169; assay: HCMV plaque reduction assay in MRC-5 cells; assay type: cell-based; details: for inhibition of HCMV plaque formation as compared to the virus control experiment: 10 micrograms per ml, 7-10 days
# [3] = system: Primary Human endothelial cells (HUVEC); assay: Endothelial cell migration assay; assay type: cell-based; details: 10 micrograms per ml, 22 hours
# [4] = system: A549 cells; assay: Apoptosis induction assay (Annexin-5); assay type: cell-based, human; details: 10 micrograms per ml, 24 hours
# [5] = system: HUVEC; assay: Endothelial tube formation assay; assay type: cell-based, human; details: 10 micrograms per ml, 20 hours
# Description: The endothelial tube formation assay is based on the ability of endothelial cells to form three-dimensional capillary-like tubular structures when cultured on a gel of basement membrane extract. The endothelial tube formation assay represents a powerful model for studying inhibition and induction of angiogenesis. Pre-labeled HUVEC with Calcein AM were seeded in a 96-well culture plate coated with extracellular metrix (Chemicon international Cat. ECM625) and treated with test peptides-10 micrograms per ml-in full growth medium. […] control was vehicle only. […] Duplicate wells for each treatment were photographed and quantitatevily analyzed for an average tubule length using image analysis software ImageProPlus. Raw data were expressed as average tubule […]±standard deviation. Statistic p values were computed using the Student's t-test.
# [6] = system: hepatitis B virus (HBV) ayw strain; assay: HBV experimental assay system, HepG2-2.2.15, TaqMan PCR of secreted HBV DNA; assay type: cell-based; details: 10 micrograms per ml; six days; HBV DNA in supernatant
# Text: HepG2-2.2.15 is a stable cell line containing the hepatitis B virus (HBV) ayw strain genome (ATCC Cat. No. CRL-11997). Antiviral compounds blocking any late step of viral replication such as transcription, translation, pregenome encapsidation, reverse transcription, particle assembly and release can be identified and characterized using this cell line. In this assay, an active compound will reduce the production of secreted HBV from cells, measured by utilizing real time quantitative PCR (TaqMan) assay to directly and accurately measure HBV DNA copies.
# HepG2-2.2.15 cells were plated in 96-well microtiter plates. After 16-24 hours the confluent monolayer of HepG2-2.2.15 cells was washed and the medium was replaced with complete medium containing test peptides—10 micrograms per ml—in duplicate. […] Six days following the initial administration of the peptides, the cell culture supernatants was collected, treated with pronase and DNAse and then used in a real-time quantitative TaqMan PCR assay. The PCR-amplified HBV DNA was detected in real-time by monitoring increases in fluorescence signals that result from the exonucleolytic degradation of a quenched fluorescence probe molecule that hybridizes to the mplified HBV DNA. […] Antiviral activity was calculated from the reduction in HBV DNA levels (% virus control). […]
# [7] = system: murine spleen cells; assay: Th1/Th2 cytokine profiling assay (Ovalbumin-restimulated spleen cells, CBA kit); assay type: cell-based, mouse; details: 10 micrograms per ml; 72 hours after Ovalbumin restimulation
Compound,antiviral activity of positive control compounds (HIV-1) [1],inhibition of the tube formation of human endothelial cells [5],inhibition of HBV replication as compared to the virus control infection [6] [%],"production of IL-2, induced by [7] [%]","production of IL-5, decreased by [7]","production of TNF-alpha, induced by [7] [%]",inhibition of HCMV plaque formation as compared to the virus control experiment [2] [%],further results
Cc1cn([C@H]2C[C@H](N=[N+]=[N-])[C@@H](CO)O2)c(=O)[nH]c1=O [AZT],expected levels of antiviral activity,,,,,,,
"Nc1nc(O)c2ncn(COC(CO)CO)c2n1 [Ganciclovir, reference compound]",,,,,,,,antiviral activity of positive control compound (HCMV) ([2]; positive control): expected levels of antiviral activity
CC(C)(C)NC(=O)[C@@H]1CN(Cc2cccnc2)CCN1C[C@@H](O)C[C@@H](Cc1ccccc1)C(=O)N[C@H]1c2ccccc2C[C@H]1O [indinavir],expected levels of antiviral activity,,,,,,,
Ser-Glu-Glu-Pro-Pro-Ile-Ser-Leu-Asp-Leu-Thr-Phe-His-Leu-Leu-Arg-Glu-Val-Leu-Glu-Met-Ala-Arg-Ala-Glu-Gln-Leu- Ala-Gln-Gln-Ala-His-Ser-Asn-Arg-Lys-Leu-Met-Glu-Ile-Ile-N H2 (SEEPPISLDLTFHLLREVLEMARAEQLAQQAHSNRKLMEII-NH2) [Peptide 2],,did not inhibit,57.2,66.5,93.0,38.1,3.2,"inhibition of the migration of human endothelial cells (in words) [3]: did not inhibit; induction of apoptosis on human lung cells [4]: 0.9%; production of IFN-gamma, induced by [7]: 44.1%; production of IL-4, induced by [7]: 78.1%"
Tyr-Ala-Asp-Ala-Ile-Phe-Thr-Asn-Ser-Tyr-Arg-Lys-Val-Leu-Gly-Gln-Leu-Ser-Ala-Arg-Lys-Leu-Leu-Gln-Asp-Ile-Met-Ser-Arg-NH2 (YADAIFTNSYRKVLGQLSARKLLQDIMSR-NH2) [Peptide 1],,did not inhibit,30.5,30.9,33.0,55.5,0.7,"inhibition of the migration of human endothelial cells [3]: 9%; induction of apoptosis on human lung cells (in words) [4]: did not show any significant induction of apoptosis; change of the production of IL-4 (in words) [7]: did not significantly change; production of IFN-gamma, decreased by [7]: 29.0"
